Marks after values point to notes of the source that are not given here.
Tests used:
[1] = Femoral artery wall layer thickness by non-invasive high-frequency ultrasound, postmenopausal estrogen users vs age-matched nonusers; type: in vivo, women
[2] = Carotid artery wall layer thickness by non-invasive high-frequency ultrasound, postmenopausal estrogen users vs age-matched nonusers; type: in vivo, women
Protocol: Any artery within the focus depth of the selected measuring equipment that can give information of the separate thicknesses of the artery intima layer and optionally the artery media layer may be used. In one embodiment, the thickness of the artery intima layer and optionally the artery media layer is measured in a superficial artery. Examples of superficial arteries include, but are not limited to, carotid, femoral, radialis, cubital, temporal, popliteal, or dorsalis pedis arteries. Depending on the artery which is selected for measurement, one skilled in the art will appreciate the various non-invasive locations on the individual in which the artery layer thickness may be measured. In one embodiment, the artery is a carotid artery and is examined in front of the sternocleidomastoid muscle, with the individual in the sitting position.
Before beginning the ultrasound imaging, individuals rest quietly for at least 15 minutes. Carotid total wall thickness and the thickness of the individual artery layers are assessed noninvasively using high-resolution ultrasonographic equipment (Osteoson® Minhorst GmbH, Meudt, Germany), fitted with a broad-banded probe with 25 MHz center frequency. The method is validated for the estimation of total artery wall thickness and media layer thickness in non-atherosclerotic superficial arteries in pigs. Briefly, the scan converter enables the image to be frozen at a selected scan-time (2 sec) and the unit permits two-dimensional data acquisition, presenting the results as scans A and B. About 128 lines of echo data are detected as an A-echo signal, sampled by an eight-bit analog-to-digital converter, converted by scanning to a rectangular format and viewed as B-mode images on a 32-colour scale monitor. Image resolution as defined by the product manual is approximately 0.07 mm axially along the ultrasonographic beam and the depth of focus is in the range of 13.5 to 14.5 mm in front of the tip of the probe. The system recognizes objects of about 0.015 mm in size, and the software-driven cursors permit a minimal digital display of 0.02 mm.
The left common carotid artery (LCCA) is examined at the point of the strongest pulse, in front of the sternocleidomastoid muscle, with the individuals sitting in an upright position and looking straight ahead. The three-layer image show the pulsating artery near wall and the artery lumen. Ten B scans (point estimates) are carried out and measurements of the thickness of the whole arterial wall and its layers are performed off-line. Means of the ten measurements are calculated and used in the analysis. The total thickness of the carotid wall is measured from the leading edge of the adventitia to the far edge of the intima. Measurements of the adventitia and intima are made using only the brightest echoes from leading edge to far edge, and the thickness of the media layer is measured as the distance between the two brightest echoes. The coefficient of variation (CV %), calculated from double estimates (based on the mean of 5 measurements each) in 20 subjects, is about 2.4% for total carotid wall thickness, about 4.2% for media thickness and about 8% for intima thickness. The values for artery wall layer given in this study are mean values based on 10 or more measurements. All ultrasonographic assessments are performed by the same investigator, who is blinded to the clinical data of the study subjects.

[3] = estrogen users vs age-matched nonusers
[4] = estrogen users vs age-matched nonusers, pair-wise
[5] = postmenopausal estrogen users (n = 17), mean ± SD

Substance: Estrogen
- Intima thickness, % difference [1, 3]: −23%
- Intima/Media ratio, % difference [1, 3]: −50%
- Media thickness, % difference [1, 3]: +51%
- Thickness of Intima + Media, % difference [1, 3]: +38%
- Total wall thickness, % difference [1, 3]: +25%
- Intima thickness, Mean difference ± SD [1, 4]: −0.030 ± 0.04 mm
- Intima/Media ratio, Mean difference ± SD [1, 4]: −0.14 ± 0.13
- Media thickness, Mean difference ± SD [1, 4]: 0.27 ± 0.30 mm
- Thickness of Intima + Media, Mean difference ± SD [1, 4]: 0.24 ± 0.33 mm
- Total wall thickness, Mean difference ± SD [1, 4]: 0.18 ± 0.40 mm
- Intima thickness [1, 5]: 0.095 ± 0.02 mm
- Intima/Media ratio [1, 5]: 0.14 ± 0.06^0.055
- Media thickness [1, 5]: 0.77 ± 0.29^a mm
- Thickness of Intima + Media [1, 5]: 0.87 ± 0.30^a mm
- Total wall thickness [1, 5]: 0.91 ± 0.37^b mm
- Intima thickness, % difference [2, 3]: −25%
- Intima/Media ratio, % difference [2, 3]: −54%
- Media thickness, % difference [2, 3]: +74%
- Thickness of Intima + Media, % difference [2, 3]: +43%
- Total wall thickness, % difference [2, 3]: +35%
- Intima thickness, Mean difference ± SD [2, 4]: −0.033 ± 0.04 mm
- Intima/Media ratio, Mean difference ± SD [2, 4]: −0.25 ± 0.15
- Media thickness, Mean difference ± SD [2, 4]: 0.26 ± 0.22 mm
- Thickness of Intima + Media, Mean difference ± SD [2, 4]: 0.22 ± 0.23 mm
- Total wall thickness, Mean difference ± SD [2, 4]: 0.23 ± 0.23 mm
- Intima thickness [2, 5]: 0.12 ± 0.02 mm
- Intima/Media ratio [2, 5]: 0.21 ± 0.0629^a
- Media thickness [2, 5]: 0.61 ± 0.19 mm
- Thickness of Intima + Media [2, 5]: 0.73 ± 0.19 mm
- Total wall thickness [2, 5]: 0.84 ± 0.19 mm

— patent US8556817B2, “Non-invasive methods for determining the cardiovascular status of an individual” (priority 2005, dated 2013)
